Assay results published in PubChem BioAssay AID1398 (The Scripps Research Institute Molecular Screening Center, 2008).
Activity calls are given as the source filed them. No rule for the calls is given here.

Target: Signal transducer and activator of transcription 3 (Homo sapiens) (UniProt P40763)
Assay: STAT3 activation reporter response, dose response, cell-based (AID 1398)

| Compound | IC50 |
| --- | --- |
| O=C(c1cccnc1)N1CCc2ccccc21 | 8.13 µM |
| COCCCNc1nc2c(-c3cccc(C(F)(F)F)c3)nnn2c2ccccc12 | > 55.7 µM (inactive) |
| CCn1c(C(=O)Nc2ccsc2C(=O)OC)cc2sc(Cl)cc21 | > 55.7 µM (inactive) |
| CN1CCN(CCCNC(=O)c2cc3c(-c4ccc(Cl)cc4)nn(C)c3s2)CC1 | 3.78 µM |
| COC(=O)c1sccc1NC(=O)c1ccc(Br)s1 | > 18.6 µM (inactive) |
| Cn1nc(-c2ccc(Cl)cc2)c2cc(C(=O)NCC3CCCO3)sc21 (configuration not stated) | > 6.19 µM (inactive) |
| CCC(C(=O)Nc1ccccc1OC)n1c(C(=O)OC)cc2ccsc21 (configuration not stated) | 2.02 µM |
| Cc1ccccc1C1c2[nH]c3ccccc3c2CCN1C(=O)c1ccc(=O)n(C)n1 (configuration not stated) | 4.19 µM |
| COc1cccc(-c2nc(N3CCCCC3C)c3ccccc3n2)c1O (configuration not stated) | > 55.7 µM (inactive) |
| CCCN(CCC)C(=O)Cn1c2ccccc2c2nc(=O)cc(C)n21 | 0.174 µM |
| CN1C(=O)/C(=C\c2cc(Br)cs2)c2ccccc21 | 0.635 µM |
| NNc1ncnc2sc3c(c12)CCC3 | > 55.7 µM (inactive) |
| CN1N=C(C(=O)N2CCc3c([nH]c4ccccc34)C2c2c(F)cccc2Cl)CCC1=O (configuration not stated) | 4.82 µM |
| NC(=O)CSc1c[nH]c2ccccc12 | inactive |
| COCCSc1ccccc1C(=O)NCCc1ccccc1 | > 55.7 µM (inactive) |
| COc1cccc2sc(Nc3nnc(-c4ccc(F)cc4)o3)nc12 | > 0.688 µM (inactive) |
| CCC(CC)NC(=O)Cc1ccccc1[N+](=O)[O-] | > 55.7 µM (inactive) |
| CCc1cc2c(NCCC(=O)O)nc(C)nc2s1 | > 55.7 µM (inactive) |
| CCOc1ccccc1-c1n[nH]c(=S)o1 | 0.521 µM |
| CC(=O)NCCC(=O)N1CCc2c([nH]c3ccccc23)C1c1cccc(Cl)c1 (configuration not stated) | > 55.7 µM (inactive) |
| COc1ccccc1-c1nnc(SCC(=O)NC2CCCCC2)o1 | 1.87 µM |
| Cn1nc(-c2ccc(Cl)cc2)c2cc(C(=O)NCCN3CCOCC3)sc21 | 6.88 µM |
| Cc1ccc(CC(=O)Nc2nc3c(s2)CCCC3)cc1 | > 55.7 µM (inactive) |
| O=C(Cc1c[nH]c2ccccc12)Nc1nc2ccccc2[nH]1 | 4.98 µM |
| COC(=O)c1n[nH]c2ccccc12 | 3.33 µM |
| Cc1cc(-c2ccc(Cl)cc2)c(C#N)c(N)n1 | 5.9 µM |

| Compound | IC50 |
| --- | --- |
| O=C(CN1CCNCC1)Nc1ccc(Oc2ccccc2)cc1 | > 55.7 µM (inactive) |
| CCOc1ccccc1CN1CCN(Cc2cc3ccccc3[nH]2)CC1CCO (configuration not stated) | > 55.7 µM (inactive) |
| CCOC(=O)C1(CC2CCCCO2)CCN(Cc2cc3ccccc3[nH]2)CC1 (configuration not stated) | > 55.7 µM (inactive) |
| COc1ccc(Cl)cc1NC(=O)Nc1ccc(Br)cn1 | > 55.7 µM (inactive) |
| O=c1c2ccccc2ncn1Cc1ccco1 | 5.66 µM |
| COc1ccccc1C(=O)NNC(=S)Nc1ccccc1 | > 0.229 µM (inactive) |
| COc1ccc(Cl)cc1NC(=O)c1oc(C)nc1C | > 55.7 µM (inactive) |
| CN1C(=O)c2ccccc2C(C(=O)NCCCN2CCCC2=O)C1c1c[nH]c2ccccc12 (configuration not stated) | > 55.7 µM (inactive) |
| Cc1noc(/C=C/N(C)C)c1S(=O)(=O)N1CCc2ccccc21 | inactive |
| COc1ccc(Br)cc1C(=O)Nc1cccc(C)c1 | inactive |
| CC1CCN(C(=O)Cn2c(=O)n(CCc3ccccc3)c(=O)c3ccccc32)CC1 | > 55.7 µM (inactive) |
| COc1ccc(S(=O)(=O)Nc2nc3ccccc3s2)cc1OC | inactive |
| N#Cc1cn(CC(=O)O)c2ccccc12 | 9.78 µM |
| O=C(C1CCCN(S(=O)(=O)c2cccc3cccnc23)C1)N1CCc2ccccc21 (configuration not stated) | > 55.7 µM (inactive) |
| O=C(Cc1cccs1)Nc1ccccn1 | 8.06 µM |
| c1ccc2c(CNC3CCCCCC3)c[nH]c2c1 | > 55.7 µM (inactive) |
| CC(C)CC(=O)NC(=S)Nc1nc(-c2ccccc2)cs1 | 0.468 µM |
| O=C(Cc1c[nH]c2ccccc12)Nc1nnc(C2CC2)s1 | 2.98 µM |
| O=C(CCc1nnc(Cc2ccc3c(c2)OCO3)o1)NCc1nc2ccccc2s1 | 2.85 µM |
| Nc1ccccc1Sc1nc2ccccc2[nH]1 | inactive |
| COc1ccc(NC(=O)N2CCn3c2nc2ccccc23)cc1 | > 55.7 µM (inactive) |
| Cc1c(C#N)c2ccccc2n1CC(=O)O | 5.09 µM |
| COc1ccc(C2c3[nH]c4ccccc4c3CCN2C(=O)c2cc3ncccn3n2)c(F)c1 (configuration not stated) | 5.23 µM |
| Cc1nn(-c2ccc(Cl)cc2)c(N)c1C(O)(CSc1nccn1C)C(F)(F)F (configuration not stated) | > 55.7 µM (inactive) |
| COC(=O)NNC(=O)c1ccccc1OC | 6.03 µM |
| Cc1nc2ccccc2cc1O | 3.4 µM |
